Laboratory results as given in ChEMBL document CHEMBL3879901, “Substituted isoquinolin-1(2H)-ones, and methods of use thereof” (2012).

Columns and labels:
[1] = molecular target: PI3-kinase p110-alpha/p85-alpha (Homo sapiens, UniProt P42336); experiment: Inhibition of N-terminal His6-tagged recombinant full-length human p110alpha/untagged recombinant full length human p85alpha expressed in baculovirus infected Sf21 cells using phosphatidylinositol as substrate in presence of gamma-32P-ATP after 5 mins by thin layer chromatographic method
Sequence of PI3-kinase p110-alpha/p85-alpha (P27986 whole entry, canonical isoform): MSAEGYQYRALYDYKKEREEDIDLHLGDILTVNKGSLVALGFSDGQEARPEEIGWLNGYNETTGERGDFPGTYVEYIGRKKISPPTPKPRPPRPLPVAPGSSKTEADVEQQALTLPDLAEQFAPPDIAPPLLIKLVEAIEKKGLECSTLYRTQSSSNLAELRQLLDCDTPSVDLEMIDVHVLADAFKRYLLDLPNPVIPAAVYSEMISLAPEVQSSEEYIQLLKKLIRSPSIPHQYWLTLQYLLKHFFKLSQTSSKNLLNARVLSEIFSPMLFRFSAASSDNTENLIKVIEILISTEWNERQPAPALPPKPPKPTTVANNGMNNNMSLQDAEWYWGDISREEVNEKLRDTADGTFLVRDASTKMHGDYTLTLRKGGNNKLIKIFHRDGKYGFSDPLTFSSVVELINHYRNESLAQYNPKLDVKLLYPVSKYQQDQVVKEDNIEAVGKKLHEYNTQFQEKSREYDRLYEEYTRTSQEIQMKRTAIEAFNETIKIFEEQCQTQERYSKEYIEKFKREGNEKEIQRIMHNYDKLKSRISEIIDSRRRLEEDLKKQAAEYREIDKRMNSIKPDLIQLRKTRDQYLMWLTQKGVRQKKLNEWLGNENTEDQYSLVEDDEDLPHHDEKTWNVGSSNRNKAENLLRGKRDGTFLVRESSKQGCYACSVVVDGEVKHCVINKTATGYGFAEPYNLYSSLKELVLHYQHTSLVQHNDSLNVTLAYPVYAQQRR
Sequence of PI3-kinase p110-alpha/p85-alpha (P42336 whole entry, canonical isoform): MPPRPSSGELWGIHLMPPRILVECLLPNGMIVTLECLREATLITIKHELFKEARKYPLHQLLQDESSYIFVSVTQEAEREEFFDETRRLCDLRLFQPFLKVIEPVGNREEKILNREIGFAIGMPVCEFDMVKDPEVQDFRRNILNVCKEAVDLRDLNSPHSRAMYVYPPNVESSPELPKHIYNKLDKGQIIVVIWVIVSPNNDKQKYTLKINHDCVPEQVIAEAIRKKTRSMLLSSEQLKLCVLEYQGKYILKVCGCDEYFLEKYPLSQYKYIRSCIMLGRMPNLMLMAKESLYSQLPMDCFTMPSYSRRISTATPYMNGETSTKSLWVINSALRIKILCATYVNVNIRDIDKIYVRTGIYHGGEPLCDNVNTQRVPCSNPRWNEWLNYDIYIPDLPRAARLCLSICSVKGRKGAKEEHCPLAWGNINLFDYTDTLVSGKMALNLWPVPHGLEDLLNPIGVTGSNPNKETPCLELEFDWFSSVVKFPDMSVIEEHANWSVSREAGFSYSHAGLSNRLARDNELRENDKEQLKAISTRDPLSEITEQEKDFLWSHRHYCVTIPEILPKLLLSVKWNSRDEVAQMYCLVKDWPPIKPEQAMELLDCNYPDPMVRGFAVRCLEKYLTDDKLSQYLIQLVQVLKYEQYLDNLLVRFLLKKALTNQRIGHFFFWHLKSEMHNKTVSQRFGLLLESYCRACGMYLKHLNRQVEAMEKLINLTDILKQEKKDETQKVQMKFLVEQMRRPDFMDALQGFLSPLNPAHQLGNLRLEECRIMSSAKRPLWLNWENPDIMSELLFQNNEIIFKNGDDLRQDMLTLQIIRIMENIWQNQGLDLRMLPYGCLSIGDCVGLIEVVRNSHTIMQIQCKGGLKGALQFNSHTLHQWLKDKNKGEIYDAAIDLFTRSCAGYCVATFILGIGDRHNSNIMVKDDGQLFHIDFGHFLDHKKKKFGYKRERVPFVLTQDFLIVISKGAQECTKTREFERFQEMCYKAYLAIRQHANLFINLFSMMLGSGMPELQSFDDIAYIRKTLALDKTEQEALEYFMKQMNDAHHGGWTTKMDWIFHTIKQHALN

[2] = molecular target: Phosphatidylinositol 4,5-bisphosphate 3-kinase catalytic subunit gamma isoform (Homo sapiens, UniProt P48736); experiment: Inhibition of recombinant human C-terminal His6-tagged p110gamma expressed in insect cells using phosphatidylinositol as substrate in presence of gamma-32P-ATP after 5 mins by thin layer chromatographic method
Sequence of Phosphatidylinositol 4,5-bisphosphate 3-kinase catalytic subunit gamma isoform (P48736 whole entry, canonical isoform): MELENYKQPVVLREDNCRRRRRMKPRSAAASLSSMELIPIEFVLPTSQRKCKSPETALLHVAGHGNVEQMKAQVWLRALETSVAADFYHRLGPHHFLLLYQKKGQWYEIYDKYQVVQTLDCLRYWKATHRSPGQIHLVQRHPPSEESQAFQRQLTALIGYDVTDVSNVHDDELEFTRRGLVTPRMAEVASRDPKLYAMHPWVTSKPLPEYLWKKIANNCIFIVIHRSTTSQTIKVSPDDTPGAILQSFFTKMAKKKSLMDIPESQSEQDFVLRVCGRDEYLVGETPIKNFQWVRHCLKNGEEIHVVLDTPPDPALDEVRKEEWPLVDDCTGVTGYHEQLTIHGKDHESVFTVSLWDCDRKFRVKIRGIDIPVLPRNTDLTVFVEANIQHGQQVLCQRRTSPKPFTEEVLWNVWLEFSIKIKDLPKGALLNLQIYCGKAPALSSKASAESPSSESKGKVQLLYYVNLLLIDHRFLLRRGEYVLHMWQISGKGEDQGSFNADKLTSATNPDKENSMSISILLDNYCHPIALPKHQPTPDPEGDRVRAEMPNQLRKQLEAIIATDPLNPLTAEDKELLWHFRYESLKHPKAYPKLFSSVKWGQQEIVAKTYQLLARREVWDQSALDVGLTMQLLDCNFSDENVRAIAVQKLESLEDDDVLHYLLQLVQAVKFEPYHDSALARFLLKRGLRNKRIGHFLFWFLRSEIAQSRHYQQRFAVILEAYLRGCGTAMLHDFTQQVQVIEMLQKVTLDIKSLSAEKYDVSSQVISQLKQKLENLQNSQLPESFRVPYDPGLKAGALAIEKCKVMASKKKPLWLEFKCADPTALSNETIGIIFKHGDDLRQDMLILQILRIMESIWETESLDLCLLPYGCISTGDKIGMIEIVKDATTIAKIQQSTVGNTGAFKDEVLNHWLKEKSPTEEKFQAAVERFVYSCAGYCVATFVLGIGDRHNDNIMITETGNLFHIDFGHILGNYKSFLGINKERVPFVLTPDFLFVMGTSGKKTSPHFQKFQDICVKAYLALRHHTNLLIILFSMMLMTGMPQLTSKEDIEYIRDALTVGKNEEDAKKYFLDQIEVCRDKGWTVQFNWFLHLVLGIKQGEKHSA

[3] = Antiproliferative activity against Balb/c mouse splenic B cells preincubated for 30 mins followed by LPS or F(ab')2 donkey anti-mouse IgM and recombinant mouse IL4 stimulation measured after 72 hrs by Alamar Blue reduction assay; type: functional, cell-based
[4] = molecular target: PI3-kinase p110-delta/p85-alpha (Homo sapiens, UniProt O00329); experiment: Inhibition of N-terminal His6-tagged recombinant full-length human p110delta/untagged recombinant full length p85alpha expressed in baculovirus infected Sf21 cells using phosphatidylinositol as substrate in presence of gamma-32P-ATP after 5 mins by thin layer chromatographic method
Sequence of PI3-kinase p110-delta/p85-alpha (P27986 whole entry): as the sequence (P27986 whole entry, canonical isoform) above
Sequence of PI3-kinase p110-delta/p85-alpha (O00329 whole entry): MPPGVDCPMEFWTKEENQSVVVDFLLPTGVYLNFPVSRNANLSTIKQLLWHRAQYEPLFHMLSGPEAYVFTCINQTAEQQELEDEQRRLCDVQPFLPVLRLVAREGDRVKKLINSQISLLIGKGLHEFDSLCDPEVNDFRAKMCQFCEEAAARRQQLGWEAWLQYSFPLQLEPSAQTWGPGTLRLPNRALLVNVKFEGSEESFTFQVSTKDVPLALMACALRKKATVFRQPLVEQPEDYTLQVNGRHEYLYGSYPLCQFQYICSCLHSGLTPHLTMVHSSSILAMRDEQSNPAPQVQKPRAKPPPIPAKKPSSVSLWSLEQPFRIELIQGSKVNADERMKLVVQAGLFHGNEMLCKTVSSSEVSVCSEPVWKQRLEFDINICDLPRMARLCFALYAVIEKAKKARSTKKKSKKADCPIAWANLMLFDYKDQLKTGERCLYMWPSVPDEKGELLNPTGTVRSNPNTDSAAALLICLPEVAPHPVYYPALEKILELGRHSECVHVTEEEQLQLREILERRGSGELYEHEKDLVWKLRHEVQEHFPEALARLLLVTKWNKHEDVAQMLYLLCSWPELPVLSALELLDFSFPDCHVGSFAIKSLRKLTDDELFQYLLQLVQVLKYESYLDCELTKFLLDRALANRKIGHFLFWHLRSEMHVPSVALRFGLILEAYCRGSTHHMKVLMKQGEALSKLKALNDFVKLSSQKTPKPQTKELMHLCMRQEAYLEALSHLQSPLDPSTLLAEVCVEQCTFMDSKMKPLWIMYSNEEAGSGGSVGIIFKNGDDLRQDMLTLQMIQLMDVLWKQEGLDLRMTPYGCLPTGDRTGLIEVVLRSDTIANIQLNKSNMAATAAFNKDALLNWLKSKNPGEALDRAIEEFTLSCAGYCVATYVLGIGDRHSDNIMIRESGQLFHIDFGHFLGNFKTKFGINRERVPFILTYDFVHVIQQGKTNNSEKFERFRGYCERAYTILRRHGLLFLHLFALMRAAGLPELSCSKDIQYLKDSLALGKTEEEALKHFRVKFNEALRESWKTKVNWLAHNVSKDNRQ

PI3K p110 beta/p85 alpha = PI3K p110 beta/p85 alpha (Homo sapiens, UniProt P42338); experiment: Inhibition of N-terminal His6-tagged recombinant full-length human p110beta/untagged recombinant full length p85alpha expressed in baculovirus infected Sf21 cells using phosphatidylinositol as substrate in presence of gamma-32P-ATP after 5 mins by thin layer chromatographic method
Sequence of PI3K p110 beta/p85 alpha (P27986 whole entry): as the sequence (P27986 whole entry, canonical isoform) above
Sequence of PI3K p110 beta/p85 alpha (P42338 whole entry): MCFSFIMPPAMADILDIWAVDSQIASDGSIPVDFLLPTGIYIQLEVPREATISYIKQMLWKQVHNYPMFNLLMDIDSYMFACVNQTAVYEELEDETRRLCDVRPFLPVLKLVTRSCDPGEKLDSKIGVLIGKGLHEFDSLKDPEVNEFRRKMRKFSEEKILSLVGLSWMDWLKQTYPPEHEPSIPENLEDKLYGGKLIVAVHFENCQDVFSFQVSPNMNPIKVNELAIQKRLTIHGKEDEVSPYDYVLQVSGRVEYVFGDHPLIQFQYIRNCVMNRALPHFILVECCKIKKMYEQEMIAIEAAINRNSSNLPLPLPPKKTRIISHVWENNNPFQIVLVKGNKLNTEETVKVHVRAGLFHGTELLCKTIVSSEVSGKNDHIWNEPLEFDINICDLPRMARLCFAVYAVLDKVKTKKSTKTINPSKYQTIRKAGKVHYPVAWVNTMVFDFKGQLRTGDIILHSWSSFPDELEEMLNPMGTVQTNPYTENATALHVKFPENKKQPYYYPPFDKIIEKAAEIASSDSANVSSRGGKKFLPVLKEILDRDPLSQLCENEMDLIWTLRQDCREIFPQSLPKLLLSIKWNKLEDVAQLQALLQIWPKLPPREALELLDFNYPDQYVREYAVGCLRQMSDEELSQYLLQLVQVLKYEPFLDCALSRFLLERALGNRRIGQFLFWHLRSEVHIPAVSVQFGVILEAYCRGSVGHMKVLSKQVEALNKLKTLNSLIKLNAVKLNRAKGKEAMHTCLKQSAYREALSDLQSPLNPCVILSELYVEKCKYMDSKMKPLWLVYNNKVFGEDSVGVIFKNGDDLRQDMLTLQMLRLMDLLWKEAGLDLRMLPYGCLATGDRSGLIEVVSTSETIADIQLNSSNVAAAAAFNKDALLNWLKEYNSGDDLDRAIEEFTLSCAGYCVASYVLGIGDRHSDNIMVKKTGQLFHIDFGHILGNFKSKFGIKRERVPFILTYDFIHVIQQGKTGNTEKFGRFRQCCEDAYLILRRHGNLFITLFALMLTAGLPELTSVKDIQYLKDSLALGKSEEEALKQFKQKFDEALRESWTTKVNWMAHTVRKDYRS

Structure (SMILES)	IC50 [1]	IC50 [2]	EC50 [3]	IC50 [4]	IC50 (PI3K p110 beta/p85 alpha)
COc1cc(-c2nn(Cc3cc4cccc(C)c4c(=O)n3-c3ccccc3F)c3ncnc(N)c23)ccc1Cl	> 10000 nM	< 1000 nM	< 10000 nM	< 10000 nM	> 10000 nM
Cc1ccncc1-n1c(Cn2nc(I)c3c(N)ncnc32)cc2cccc(C)c2c1=O		< 1000 nM	< 1000 nM	< 100 nM	> 10000 nM
Cc1ccccc1-n1c(Cn2nc(-c3cccc(Cl)c3)c3c(N)ncnc32)cc2cccc(C)c2c1=O	> 10000 nM	< 1000 nM	< 10000 nM	< 10000 nM	> 10000 nM
Cc1cccc2cc(Cn3nc(-c4cccc(F)c4)c4c(N)ncnc43)n(-c3ccccc3F)c(=O)c12	> 10000 nM	< 10000 nM	< 10000 nM	< 10000 nM	> 10000 nM
Cc1cccc2cc(Cn3nc(Cl)c4c(N)ncnc43)n(-c3ccccc3F)c(=O)c12	> 10000 nM	< 10000 nM	< 1000 nM	< 1000 nM	> 10000 nM
Cc1cccc2cc(Cn3nc(-c4ccc5nc(N)sc5c4)c4c(N)ncnc43)n(-c3ccccc3)c(=O)c12	< 100000 nM	< 100 nM	< 100 nM	< 100 nM	
Cc1cccc2cc([C@H](C)Nc3ncnc4[nH]cc(C#N)c34)n(C3CC3)c(=O)c12		< 100 nM	< 100 nM	< 100 nM	< 100 nM
Cc1cccc2cc(Cn3nc(I)c4c(N)ncnc43)n(-c3ccccc3Cl)c(=O)c12		< 1000 nM	< 1000 nM	< 100 nM	> 10000 nM
Cc1cccc2cc([C@H](C)Nc3ncnc4[nH]cc(Cl)c34)n(-c3ccccc3)c(=O)c12		< 100 nM		< 100 nM	< 100 nM
Cc1ccccc1-n1c(Cn2nc(-c3ccc(Cl)cc3)c3c(N)ncnc32)cc2cccc(C)c2c1=O	> 10000 nM	< 1000 nM	< 10000 nM	< 1000 nM	
Cc1ccccc1-n1c(Cn2nc(-c3cccc(O)c3)c3c(N)ncnc32)cc2ccccc2c1=O	> 10000 nM	< 1000 nM	< 1000 nM	< 100 nM	
Cc1ccccc1-n1c(Cn2nc(-c3cnn(CCO)c3)c3c(N)ncnc32)cc2cccc(C)c2c1=O	> 10000 nM	< 1000 nM	< 1000 nM		> 10000 nM
Cc1cccnc1-n1c(Cn2nc(Br)c3c(N)ncnc32)cc2cccc(C)c2c1=O	> 10000 nM	< 10000 nM	< 100 nM	< 1000 nM	
CCN(Cc1cc2cccc(C)c2c(=O)n1-c1ccccc1C)c1ncnc2[nH]cnc12	> 10000 nM	< 10000 nM		< 10000 nM	> 10000 nM
Cc1cccc2cc([C@H](C)Nc3ncnc4[nH]cc(Br)c34)n(-c3ccccc3)c(=O)c12		< 100 nM	< 100 nM	< 100 nM	< 100 nM
Cc1cccc2cc(Cn3nc(I)c4c(N)ncnc43)n(C(C)C)c(=O)c12	> 10000 nM	> 10000 nM		100 to 10000 nM	> 10000 nM
Cc1cccc2cc([C@H](C)Nc3ncnc4[nH]cc(C(N)=O)c34)n(-c3ccccc3)c(=O)c12		< 100 nM		< 100 nM	< 100 nM
Cc1cccc2cc(Cn3nc(-c4cccc(O)c4)c4c(N)ncnc43)n(C3CCCC3)c(=O)c12	> 10000 nM	< 1000 nM		< 100 nM	< 10000 nM
Cc1cccc2cc([C@H](C)Nc3ncnc4[nH]nc(C(N)=O)c34)n(C3CC3)c(=O)c12		< 100 nM		< 100 nM	< 100 nM
Cc1cccc2cc(Cn3nc(-c4ccn[nH]4)c4c(N)ncnc43)n(-c3ccccc3F)c(=O)c12	> 10000 nM	< 10000 nM		< 1000 nM	> 10000 nM
Cc1cccc2cc([C@H](C)Nc3ncnc4[nH]cc(F)c34)n(C3CC3)c(=O)c12		< 100 nM	< 100 nM	< 100 nM	< 100 nM
Cc1cccc2cc([C@H](C)Nc3ncnc4[nH]cc(C#N)c34)n(-c3ccccc3)c(=O)c12		< 100 nM		< 100 nM	< 100 nM
Cc1cccc2cc([C@H](C)Nc3ncnc4[nH]cc(Br)c34)n(C3CC3)c(=O)c12		< 100 nM		< 100 nM	< 100 nM
Cc1cccc2cc([C@H](C)Nc3ncnc4[nH]nc(C(N)=O)c34)n(-c3ccccc3)c(=O)c12		< 100 nM	< 100 nM	< 100 nM	< 100 nM
Cc1cccc2cc(Cn3nc(C#C[C@@H](C)O)c4c(N)ncnc43)n(C3CCCC3)c(=O)c12	> 10000 nM	< 10000 nM		< 100 nM	< 10000 nM

Structure (SMILES)	IC50 [1]	IC50 [2]	EC50 [3]	IC50 [4]	IC50 (PI3K p110 beta/p85 alpha)
Cc1ccccc1-n1c(CN(C)c2ncnc3[nH]cnc23)cc2cccc(C)c2c1=O	> 10000 nM	< 10000 nM			> 10000 nM
Cc1ccccc1-n1c(Cn2nc(CN3CCOCC3)c3c(N)ncnc32)cc2cccc(C)c2c1=O	> 10000 nM	> 10000 nM		< 10000 nM	> 10000 nM
Nc1ncnc2c1c(-c1cn[nH]c1)nn2Cc1cc2cccc(F)c2c(=O)n1-c1ccccc1F	> 10000 nM	< 10000 nM		< 1000 nM	> 10000 nM
Cc1cccc2cc([C@H](C)Nc3ncnc4[nH]cnc34)n(C3CC3)c(=O)c12		< 100 nM	< 100 nM	< 100 nM	< 100 nM
Cc1cccc2cc([C@H](C)Nc3ncnc4[nH]cc(C(N)=O)c34)n(C3CC3)c(=O)c12		< 100 nM		< 100 nM	< 100 nM
Cc1cccc2cc(Cn3nc(-c4ccc5oc(N)nc5c4)c4c(N)ncnc43)n(C3CC3)c(=O)c12	< 100000 nM	< 100 nM	< 100 nM	< 100 nM	
Cc1cccc2cc(Cn3nc(-c4cnn(C)c4)c4c(N)ncnc43)n(-c3ccccc3F)c(=O)c12	> 10000 nM	< 10000 nM		< 10000 nM	> 10000 nM
Cc1cccc2cc([C@H](C)Nc3ncnc4[nH]nc(C#N)c34)n(-c3ccccc3)c(=O)c12		< 100 nM	< 100 nM	< 100 nM	< 100 nM
C=Cc1nn(Cc2cc3cccc(C)c3c(=O)n2-c2ccccc2F)c2ncnc(N)c12	> 10000 nM	< 10000 nM		< 1000 nM	> 10000 nM
Cc1cccc2cc([C@H](C)Nc3ncnc4[nH]cc(F)c34)n(-c3ccccc3)c(=O)c12		< 100 nM	< 100 nM	< 100 nM	< 100 nM
Cc1cccnc1-n1c(Cn2nc(Cl)c3c(N)ncnc32)cc2cccc(C)c2c1=O	> 10000 nM	> 10000 nM	< 1000 nM	< 1000 nM	
Cc1ccccc1-n1c(Cn2nc(CCC(N)=O)c3c(N)ncnc32)cc2cccc(C)c2c1=O	> 10000 nM	< 10000 nM		< 1000 nM	> 10000 nM
Cc1ccccc1-n1c(Cn2nc(Cl)c3c(N)ncnc32)cc2cccc(C)c2c1=O	> 10000 nM	< 1000 nM	< 1000 nM	< 100 nM	
C[C@H](Nc1ncnc2[nH]cnc12)c1cc2cccc(Cl)c2c(=O)n1C1CC1		< 100 nM	< 100 nM	< 100 nM	< 100 nM
COc1cc(F)cc(-c2nn(Cc3cc4cccc(C)c4c(=O)n3-c3ccccc3C)c3ncnc(N)c23)c1	> 10000 nM	< 10000 nM		< 1000 nM	> 10000 nM
Cc1cccc2cc(Cn3nc(/C=C4/CCNC4=O)c4c(N)ncnc43)n(-c3ccccc3F)c(=O)c12	> 10000 nM	> 10000 nM		< 10000 nM	> 10000 nM
Cc1ccccc1-n1c(Cn2nc(/C=C/C(=O)N3CCOCC3)c3c(N)ncnc32)cc2cccc(C)c2c1=O	> 10000 nM	> 10000 nM		< 1000 nM	> 10000 nM
CC(=O)Nc1nc2cc(-c3nn(Cc4cc5cccc(C)c5c(=O)n4-c4ccccc4)c4ncnc(N)c34)ccc2o1		< 100 nM	< 100 nM	< 100 nM	< 100 nM
Cc1ccccc1-n1c(Cn2nc(-c3cnn(C)c3)c3c(N)ncnc32)cc2cccc(C)c2c1=O	> 10000 nM	< 1000 nM		< 10000 nM	> 10000 nM
Cc1cccc2cc([C@H](C)Nc3ncnc4[nH]ccc34)n(C3CC3)c(=O)c12		< 100 nM		< 100 nM	< 100 nM
Cc1cccc2cc(Cn3nc(CF)c4c(N)ncnc43)n(-c3ccccc3)c(=O)c12		< 100 nM	< 100 nM	< 100 nM	
Cc1ccccc1-n1c(Cn2nc(CCC(=O)N3CCOCC3)c3c(N)ncnc32)cc2cccc(C)c2c1=O	> 10000 nM	> 10000 nM		< 10000 nM	> 10000 nM
Cc1ccccc1-n1c(Cn2nc(C(F)F)c3c(N)ncnc32)cc2cccc(C)c2c1=O		< 100 nM	< 100 nM	< 100 nM	
COc1ccc(-c2nn(Cc3cc4cccc(C)c4c(=O)n3-c3ccccc3F)c3ncnc(N)c23)cc1OC	> 10000 nM	< 1000 nM	< 1000 nM	< 1000 nM	
Cc1ccccc1-n1c(Cn2nc(-c3ccc4nc(N)[nH]c4c3)c3c(N)ncnc32)cc2cccc(C)c2c1=O		< 100 nM	< 100 nM	< 100 nM	
